Experimental findings from US20140017893A1, “CMP POLISHING LIQUID AND METHOD FOR POLISHING SUBSTRATE USING THE SAME” (Hitachi Chemical Company, Ltd., priority 2007, published 2014) are described below.

Values after ≈ are worked out from the molar mass of the structure shown.

A short description of the data set: Solubility of guanidine compounds in water, OECD Guideline 105 flask method. Type of data set: physicochemical.

For orientation: solubility means the concentration that dissolves in the medium under given conditions. A lower solubility goes with a poorly soluble substance.

As for `Cc1ccccc1NC(=N)NC(=N)N` [o-Tolylbiguanide], the Solubility in water was 15 mM (≈ 2870 µg/mL).

`N=C(N)NN` [aminoguanidine] gave a solubility (water, thermodynamic from solid) of 50 mM (≈ 3700 µg/mL).
